# Experimental data published in US20210198256A1, “COMPOUNDS FOR THE DEGRADATION OF BRD9 OR MTH1” (C4 Therapeutics, Inc., priority 2018, published 2021).
# System: SMARTCAR-MTH1-wt-HiBiT (Jurkat.7 cells)
# Test: HiBit Lytic Assay (HiBit DC50, MTH1 degraders of Table 2)
# Format: cell-based, human
# Conditions: Jurkat.7 SMARTCAR-MTH1-wt-HiBiT cells, compound treatment time 4 hr, 11-point half log dose response
# Protocol: Example 3. HiBit Lytic Assay
# • Compound is made at 10 mM, half log dilution, 11 points. • MDR plates can also be ordered from Frontier with same format. • 1. Barcode a 384LDV plate (384-well Low Dead Volume Microplate, Labcyte LP-0200) (Echo compatible) on the left side. • 2. Transfer 13.6 μL of 10 mM compound into column 1 of LDV plate (Labcyte). • 3. Fill column 2-11 and column 23 of MDR plate with 9.30 μL of DMSO. • 4. Serial dilute 3.16 fold from column 1 to 2 by transferring 4.30 μL from column 1 to column 2, and so on to column 11. *Change tip in every dilution to prevent compound carryover effect! • 5. Seal the plate with Plate Sealer, then store the MDR plate at room temperature for short term storage and in −20° C. for long term storage.
# • Cells are treated with 30 nL of each compound at 10 mM, half log dilution, 11 points with final concentration of 1000 nM or 833 nM, half log dilution, 11 points, in duplicates. Final DMSO concentration is 0.1%. • 1. Barcode the plates made on the left side and label the plates with silver marker. • 2. Dispense with the following scheme: • a. 30 nL of compound into corresponding wells in cell plates via Echo550 with “MDR32_HiBiT16_30 nL”. Top concentration will be 1000 nM. • 3. Seal the plate with Plate Sealer.
# • Cells are dispensed at density specified in Cell Line Table in 384-well microplate. • 1. Culture cells to between 50-80% of confluence in sterile culture flasks of appropriate size. • 2. For Adherent Cell Lines: • a. Aspirate off growth media in culture flask, and wash off the Phenol Red media with 5 mL of 1×PBS. • b. Add 5 mL of Trypsin to the cells, incubate at 37° C. for 5 minutes. • c. Add 5 mL of growth media to the trypsinzed cells, and resuspend. • 3. Remove 10 μL of cells, and resuspend the cells with 10 μL of Trypan Blue. Insert the solution to counting chamber slide, and count the cells via cell counter. • 4. Adjust the cell concentration to specified plating density, and strain the cells with cell strainer. • 5. Dispense the cells via E1-ClipTip™ Electronic Multichannel Pipettes or Multidrop™ Combi Reagent Dispenser with Standard tube dispensing cassette: • a. Prime the cassette with 10-20 mL of ddH2O. • b. Prime the cassette with 10-20 mL of cells. • c. Dispense the cells at low speed for 30 μL/well in Corning® 384 Well Low Flange Black Flat Bottom Polystyrene TC-Treated Microplate. • d. Wash the cassette with 10-20 mL of ddH2O, follow by 10-20 mL of 70% EtOH, then again with 10-20 mL of ddH2O. • 6. Incubate the plates at 37° C.×compound treatment time.
# • 1. If not already, bring Nano-Glo® HiBiT Lytic Buffer to room temperature. • 2. Determine the amount of reagent needed. A volume of reagent equal to the volume of media in the well should be added (i.e. 30 μL of cells will need 30 μL of HiBiT Lytic reagent). • 3. Into a given volume of buffer, dilute the substrate 50-fold and the LgBiT protein 100-fold. For example, to make 10 ml of reagent, add the following: • 10 ml Nano-Glo® HiBiT Lytic Buffer • 200 μl Nano-Glo® HiBiT Lytic Substrate • 100 μl LgBiT Protein • The reagent should be reconstituted immediately before use. However, once reconstituted, it should take about 4 hours for the activity to decrease 10%. • 4. Cool down the cell plate to room temperature for 10-15 minutes without lid. • 5. Dispense the HiBiT Lytic Reagent via E1-ClipTip™ Electronic Multichannel Pipettes or Multidrop™ Combi Reagent Dispenser with Standard tube dispensing cassette: • a. Prime the cassette with 10-20 mL of ddH2O. • b. Prime the cassette with 10-20 mL of CTG 2.0. • c. Dispense the HiBiT Lytic Reagent at medium speed for 30 μL/well in cell plate to column 1-23 (column 24 will be used as plate background). • d. Wash the cassette with 10-20 mL of ddH2O, follow by 10-20 mL of 70% EtOH, then again with 10-20 mL of ddH2O. • 6. Incubate the cell plate at room temperature for 10 minutes without lid. • 7. […]
row,Compound,DC50
1,"CNC(=O)c1cnc2cc(C(F)(F)F)c(-c3ccc(C(=O)NCCCCNC(=O)COc4cccc5c4C(=O)N(C4CCC(=O)NC4=O)C5=O)c(F)c3)cc2c1Nc1ccccc1 (stereo not drawn) [Compound 379, 6-(4-((4-(2-((2-(2,6-dioxopiperidin-3-yl)-1,3-dioxoisoindolin-4-yl)oxy)acetamido)butyl)carbamoyl)-3-fluorophenyl)-N-methyl-4-(phenylamino)-7-(trifluoromethyl)quinoline-3-carboxamide]",< 100 nM
2,"CNC(=O)c1cnc2cc(OC)c(-c3ccc(C(=O)NCCCCNC(=O)[C@@H](C)Nc4cccc5c4C(=O)N(C4CCC(=O)NC4=O)C5=O)nc3)cc2c1Nc1ccccc1 (stereo partly drawn) [Compound 382, 6-(6-((4-((2R)-2-((2-(2,6-dioxopiperidin-3-yl)-1,3-dioxoisoindolin-4-yl)amino)propanamido)butyl)carbamoyl)pyridin-3-yl)-7-methoxy-N-methyl-4-(phenylamino)quinoline-3-carboxamide]",< 100 nM
3,"CNC(=O)c1cnc2ccc(-c3ccc(CCCCCNC(=O)CNc4cccc5c4C(=O)N(C4CCC(=O)NC4=O)C5=O)nc3)cc2c1Nc1ccccc1 (stereo not drawn) [Compound 385, 4-anilino-6-[6-[5-[[2-[[2-(2,6-dioxo-3-piperidyl)-1,3-dioxo-isoindolin-4-yl]amino]acetyl]amino]pentyl]-3-pyridyl]-N-methyl-quinoline-3-carboxamide]",< 100 nM
4,"CNC(=O)c1cnc2cc(C(F)(F)F)c(-c3ccc(C(=O)NCCCCn4cc(CNc5cccc6c5C(=O)N(C5CCC(=O)NC5=O)C6=O)nn4)nc3)cc2c1Nc1ccccc1 (stereo not drawn) [Compound 386, 6-(6-((4-(4-(((2-(2,6-dioxopiperidin-3-yl)-1,3-dioxoisoindolin-4-yl)amino)methyl)-1H-1,2,3-triazol-1-yl)butyl)carbamoyl)pyridin-3-yl)-N-methyl-4-(phenylamino)-7-(trifluoromethyl)quinoline-3-carboxamide]",< 100 nM
5,"CNC(=O)c1cnc2ccc(-c3nc(C(=O)NCCCCNC(=O)CNc4cccc5c4C(=O)N(C4CCC(=O)NC4=O)C5=O)cs3)cc2c1Nc1ccccc1 (stereo not drawn) [Compound 387, 2-[4-anilino-3-(methylcarbamoyl)-6-quinolyl]-N-[4-[[2-[[2-(2,6-dioxo-3-piperidyl)-1,3-dioxo-isoindolin-4-yl]amino]acetyl]amino]butyl]thiazole-4-carboxamide]",< 100 nM
6,"CNC(=O)c1cnc2cc(C(F)(F)F)c(-c3ccc(C(=O)NCCCCNC(=O)CNc4cccc5c4C(=O)N(C4CCC(=O)NC4=O)C5=O)nc3)cc2c1Nc1ccccc1 (stereo not drawn) [Compound 388, 6-(6-((4-(2-((2-(2,6-dioxopiperidin-3-yl)-1,3-dioxoisoindolin-4-yl)amino)acetamido)butyl)carbamoyl)pyridin-3-yl)-N-methyl-4-(phenylamino)-7-(trifluoromethyl)quinoline-3-carboxamide]",< 100 nM
7,"CNC(=O)c1cnc2cc(F)c(-c3ccc(C(=O)NCCCCn4cc(CNc5cccc6c5C(=O)N(C5CCC(=O)NC5=O)C6=O)nn4)nc3)cc2c1Nc1ccccc1 (stereo not drawn) [Compound 389, 6-(6-((4-(4-(((2-(2,6-dioxopiperidin-3-yl)-1,3-dioxoisoindolin-4-yl)amino)methyl)-1H-1,2,3-triazol-1-yl)butyl)carbamoyl)pyridin-3-yl)-7-fluoro-N-methyl-4-(phenylamino)quinoline-3-carboxamide]",< 100 nM
8,"COc1ccc(CNc2c(C(=O)NC3CC3)cnc3cc(OC)c(-c4ccc(C(=O)NCCCCn5cc(CNc6cccc7c6C(=O)N(C6CCC(=O)NC6=O)C7=O)nn5)nc4)cc23)cc1 (stereo not drawn) [Compound 395, N-cyclopropyl-6-[6-[4-[4-[[[2-(2,6-dioxo-3-piperidyl)-1,3-dioxo-isoindolin-4-yl]amino]methyl]triazol-1-yl]butylcarbamoyl]-3-pyridyl]-7-methoxy-4-[(4-methoxyphenyl)methylamino]quinoline-3-carboxamide]",< 100 nM
9,"COc1cc2ncc(C(=O)NC3CC3)c(Nc3ccccc3)c2cc1-c1ccc(C(=O)NCCCCn2cc(CNc3cccc4c3C(=O)N(C3CCC(=O)NC3=O)C4=O)nn2)nc1 (stereo not drawn) [Compound 396, 4-anilino-N-cyclopropyl-6-[6-[4-[4-[[[2-(2,6-dioxo-3-piperidyl)-1,3-dioxo-isoindolin-4-yl]amino]methyl]triazol-1-yl]butylcarbamoyl]-3-pyridyl]-7-methoxy-quinoline-3-carboxamide]",< 100 nM
10,"CNc1c(C(=O)NC2CC2)cnc2cc(OC)c(-c3ccc(C(=O)NCCCCn4cc(CNc5cccc6c5C(=O)N(C5CCC(=O)NC5=O)C6=O)nn4)nc3)cc12 (stereo not drawn) [Compound 397, N-cyclopropyl-6-[6-[4-[4-[[[2-(2,6-dioxo-3-piperidyl)-1,3-dioxo-isoindolin-4-yl]amino]methyl]triazol-1-yl]butylcarbamoyl]-3-pyridyl]-7-methoxy-4-(methylamino)quinoline-3-carboxamide]",< 100 nM
11,"COc1cc2ncc(C(=O)NC3CC3)c(N)c2cc1-c1ccc(C(=O)NCCCCn2cc(CNc3cccc4c3C(=O)N(C3CCC(=O)NC3=O)C4=O)nn2)nc1 (stereo not drawn) [Compound 398, 4-amino-N-cyclopropyl-6-[6-[4-[4-[[[2-(2,6-dioxo-3-piperidyl)-1,3-dioxo-isoindolin-4-yl]amino]methyl]triazol-1-yl]butylcarbamoyl]-3-pyridyl]-7-methoxy-quinoline-3-carboxamide]",< 100 nM
12,"CNc1c(C(=O)NC2CC2)cnc2cc(F)c(-c3ccc(C(=O)NCCCCCCCc4cnc5c(c4)CN(C4CCC(=O)NC4=O)C5=O)c(F)c3)cc12 (stereo not drawn) [Compound 401, N-cyclopropyl-6-[4-[7-[6-(2,6-dioxo-3-piperidyl)-7-oxo-5H-pyrrolo[3,4-b]pyridin-3-yl]heptylcarbamoyl]-3-fluoro-phenyl]-7-fluoro-4-(methylamino)quinoline-3-carboxamide]",< 100 nM
13,"CNc1c(C(=O)NC2CC2)cnc2cc(F)c(-c3ccc(C(=O)NCCCCCCCCc4cnc5c(c4)CN(C4CCC(=O)NC4=O)C5=O)c(F)c3)cc12 (stereo not drawn) [Compound 405, N-cyclopropyl-6-[4-[8-[6-(2,6-dioxo-3-piperidyl)-7-oxo-5H-pyrrolo[3,4-b]pyridin-3-yl]octylcarbamoyl]-3-fluoro-phenyl]-7-fluoro-4-(methylamino)quinoline-3-carboxamide]",< 100 nM
14,"CNc1c(C(=O)NC2CC2)cnc2cc(F)c(-c3ccc(C(=O)NCCCCCCCCc4ccc5c(n4)CN(C4CCC(=O)NC4=O)C5=O)c(F)c3)cc12 (stereo not drawn) [Compound 408, N-cyclopropyl-6-[4-[8-[6-(2,6-dioxo-3-piperidyl)-5-oxo-7H-pyrrolo[3,4-b]pyridin-2-yl]octylcarbamoyl]-3-fluoro-phenyl]-7-fluoro-4-(methylamino)quinoline-3-carboxamide]",< 100 nM
15,"CNc1c(C(=O)NC2CC2)cnc2cc(C(F)(F)F)c(-c3ccc(C(=O)NCCCCCCCCc4ccc5c(n4)CN(C4CCC(=O)NC4=O)C5=O)c(F)c3)cc12 (stereo not drawn) [Compound 409, N-cyclopropyl-6-[4-[8-[6-(2,6-dioxo-3-piperidyl)-5-oxo-7H-pyrrolo[3,4-b]pyridin-2-yl]octylcarbamoyl]-3-fluoro-phenyl]-4-(methylamino)-7-(trifluoromethyl)quinoline-3-carboxamide]",< 100 nM
